Source: patent publication US9656990B2, “Cathepsin cysteine protease inhibitors” (Merck Sharp & Dohme Corp., priority 2014, dated 2017)

Experiments:
[1] = target: T1, human cathepsin F (Homo sapiens, UniProt Q9UBX1); assay: Cathepsin F Assay; format: biochemical; conditions: IP from dose response curve; Z-Phe-Arg-AMC substrate, pH 5.5; read-out: hCat F (IP (nM))
T1 sequence (Q9UBX1 271-484): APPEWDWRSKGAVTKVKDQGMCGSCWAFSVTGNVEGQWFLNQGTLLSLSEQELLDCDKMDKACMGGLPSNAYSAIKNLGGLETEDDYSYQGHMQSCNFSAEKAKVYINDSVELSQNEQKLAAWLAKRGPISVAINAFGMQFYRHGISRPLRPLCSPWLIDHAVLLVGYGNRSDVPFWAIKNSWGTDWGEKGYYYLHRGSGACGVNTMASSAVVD
Description: Serial dilutions (1/3) from 500 μM down to 0.025 μM of test compounds were prepared in dimethyl sulfoxide (DMSO). Then 0.5 μL of DMSO from each dilution were added to 18.75 μL of assay buffer (MES, 50 mM (pH 5.5); EDTA, 2.5 mM; DTT, 2.5 mM and 10% DMSO) containing human cathepsin F (10 nM) in assay buffer solution. The assay solutions were mixed for 5-10 seconds on a shaker plate and incubated for 15 minutes at room temperature. Z-Phe-Arg-AMC (8 μM) in 6.25 μL of assay buffer was added to the assay solutions. Hydrolysis of the coumarin leaving group (AMC) was followed by spectrofluorometry (Exλ=360 nm; Emλ=460 nm) for 20 minutes. Percent of inhibition were calculated by fitting experimental values to standard mathematical model for dose response curve.

[2] = target: human cathepsin K (UniProt P43236, Y175D/V274L, species not given); assay: Cathepsin K Assay; format: biochemical; conditions: IP from dose response curve; Z-Leu-Arg-AMC substrate, pH 5.5; read-out: hrbCat K (IP (nM))

| Compound | IC50 [1] | IC50 [2] |
| --- | --- | --- |
| CS(=O)(=O)c1ccc(-c2cn(-c3ccccc3)nc2C2CCC(F)(F)CC2C(=O)NCC#N)cc1 (racemic) [Example 76, (1R,2R and 1S,2S)-N-(cyanomethyl)-5,5-difluoro-2-(4-(4-(methylsulfonyl)phenyl)-1-phenyl-1H-pyrazol-3-yl)cyclohexanecarboxamide] | 11 nM | 0.8 nM |
| CS(=O)(=O)c1ccc(-c2cn(-c3ccc(F)cc3)nc2C2CCC(F)(F)CC2C(=O)NCC#N)cc1 (racemic) [Example 77, (1R,2R and 1S,2S)-N-(cyanomethyl)-5,5-difluoro-2-(1-(4-fluorophenyl)-4-(4-(methylsulfonyl)phenyl)-1H-pyrazol-3-yl)cyclohexanecarboxamide] | 9 nM | 1.24 nM |
| CS(=O)(=O)c1ccc(-c2cn(-c3ccc4ccccc4c3)nc2C2CCC(F)(F)CC2C(=O)NCC#N)cc1 (racemic) [Example 78, (1R,2R and 1S,2S)-N-(cyanomethyl)-5,5-difluoro-2-(4-(4-(methylsulfonyl)phenyl)-1-(naphthalen-2-yl)-1H-pyrazol-3-yl)cyclohexanecarboxamide] | 4 nM | 2.12 nM |
| N#CCNC(=O)C1CC(F)(F)CCC1c1nn(-c2ccc(F)cc2)cc1-c1ccc(N2CCS(=O)(=O)CC2)cc1 (racemic) [Example 79, (1R,2R and 1S,2S)-N-(cyanomethyl)-2-(4-(4-(1,1-dioxidothiomorpholino)phen-yl)-1-(4-fluorophenyl)-1H-pyrazol-3-yl)-5,5-difluorocyclohexanecarbox-amide] | 17 nM | 0.81 nM |
| N#CC1(NC(=O)C2CC(F)(F)CCC2c2nn(-c3ccc(F)cc3)cc2-c2ccc(N3CCS(=O)(=O)CC3)cc2)CC1 (racemic) [Example 80, (1R,2R and 1S,2S)-N-(1-cyanocyclopropyl)-2-(4-(4-(1,1-dioxidothiomorpholino)phen-yl)-1-(4-fluorophenyl)-1H-pyrazol-3-yl)-5,5-difluorocyclohexanecarbox-amide] | 35 nM | 1 nM |
| CC(C#N)NC(=O)[C@@H]1CCC(F)(F)C[C@H]1c1nn(-c2ccc(F)cn2)cc1-c1ccc(N2CCS(=N)(=O)CC2)cc1 (single isomer, unassigned) [Example 22, (1R,2R)-N-((R or S)-1-cyanoethyl)-4,4-difluoro-2-(1-(5-fluoropyridin-2-yl)-4-(4-(1-imino-1-oxidothiomorpholino)phenyl)-1H-pyrazol-3-yl)cyclohexanecarboxamide] | – | 264 nM |
| CN=S1(=O)CCN(c2ccc(-c3cn(-c4ccc(F)cn4)nc3[C@@H]3CC(F)(F)CC[C@H]3C(=O)NC(C)C#N)cc2)CC1 (single isomer, unassigned) [Example 24, (1R,2R)-N-((R or S)-1-cyanoethyl)-4,4-difIuoro-2-(1-(5-fluoropyridin-2-yl)-4-(4-(1-(methylimino)-1-oxidothiomorpholino)phenyl)-1H-pyrazol-3-yl)cyclohexanecarboxamide] | – | 169 nM |
| CC1(C)CC[C@@H](c2nn(-c3ccc(F)cc3)cc2-c2ccc(N3CCS(=O)(=O)CC3)cc2)[C@H](C(=O)NC2(C#N)CC2)C1 (single isomer, unassigned) [Example 126, (1R,2R) or (1S,2S)-N-(1-cyanocyclopropyl)-2-(4-(4-(1,1-dioxidothiomorpholino)phen-yl)-1-(4-fluorophenyl)-1H-pyrazol-3-yl)-5,5-dimethylcyclohexanecarbox-amide] | – | 116 nM |
| C[C@@H](C#N)NC(=O)[C@@H]1C[C@@H](F)CC[C@H]1c1nn(-c2ncccc2F)cc1-c1ccc(N2CCS(=O)(=O)CC2)cc1 [Example 12, (1R,2R,5S)—N—((S)-1-Cyanoethyl)-2-(4-(4-(1,1-dioxidothiomorpholino)phenyl)-1-(3-fluoropyridin-2-yl)-1H-pyrazol-3-yl)-5-fluorocyclohexanecarboxamide] | – | 6.89 nM |
| N#CC1(NC(=O)[C@@H]2CCC(F)(F)C[C@H]2c2nn(-c3ncccc3F)cc2-c2ccc(N3CCS(=N)(=O)CC3)cc2)CC1 [Example 39, (1R,2R)-N-(1-cyanocyclopropyl)-4,4-difluoro-2-(1-(3-fluoropyridin-2-yl)-4-(4-(1-imino-1-oxidothiomorpholino)phenyl)-1H-pyrazol-3-yl)cyclohexanecarboxamide] | – | 48.7 nM |
| CN=S1(=O)CCN(c2ccc(-c3cn(-c4ncccc4F)nc3[C@@H]3CC(F)(F)CC[C@H]3C(=O)NC3(C#N)CC3)cc2)CC1 [Example 40, (1R,2R)-N-(1-cyanocyclopropyl)-4,4-difluoro-2-(1-(3-fluoropyridin-2-yl)-4-(4-(1-(methylimino)-1-oxidothiomorpholino)phenyl)-1H-pyrazol-3-yl)cyclohexanecarboxamide] | – | 22 nM |
| CC(C)[C@@H](C#N)NC(=O)[C@@H]1C[C@@H](F)CC[C@H]1c1nn(-c2ncccc2F)cc1-c1ccc(N2CCS(=O)(=O)CC2)cc1 [Example 49, (1R,2R,5S)-N-((S)-1-cyano-2-methylpropyl)-2-(4-(4-(1,1-dioxidothiomorpholino)phen-yl)-1-(3-fluoropyridin-2-yl)-1H-pyrazol-3-yl)-5-fluorocyclohexanecarboxamide] | – | 8.35 nM |
| CN=S1(=O)CCN(c2ccc(-c3cn(-c4ncccc4F)nc3[C@@H]3CC[C@H](F)C[C@H]3C(=O)NC3(C#N)CC3)cc2)CC1 [Example 53, (1R,2R,5S)-N-(1-cyanocyclopropyl)-5-fluoro-2-(1-(3-fluoropyridin-2-yl)-4-(4-(1-(methylimino)-1-oxidothiomorpholino)phenyl)-1H-pyrazol-3-yl)cyclohexanecarboxamide] | – | 6.54 nM |
| CN=S1(=O)CCN(c2ccc(-c3cn(-c4ncccc4F)nc3[C@@H]3CC[C@H](F)C[C@H]3C(=O)N[C@@H](C)C#N)cc2)CC1 [Example 54, (1R,2R,5S)-N-((S)-1-cyanoethyl)-5-fluoro-2-(1-(3-fluoropyridin-2-yl)-4-(4-(1-(methylimino)-1-oxidothiomorpholino)phenyl)-1H-pyrazol-3-yl)cyclohexanecarboxamide] | – | 7.89 nM |
| CN=S1(=O)CCN(c2ccc(-c3cn(-c4ncccc4F)nc3[C@@H]3CC[C@H](F)C[C@H]3C(=O)N[C@H](C#N)C(C)C)cc2)CC1 [Example 55, (1R,2R,5S)-N-((S)-1-cyano-2-methylpropyl)-5-fluoro-2-(1-(3-fluoropyridin-2-yl)-4-(4-(1-(methylimino)-1-oxidothiomorpholino)phenyl)-1H-pyrazol-3-yl)cyclohexanecarboxamide] | – | 14.3 nM |
| N#CC1(NC(=O)[C@@H]2C[C@@H](F)CC[C@H]2c2nn(-c3ncccc3F)cc2-c2ccc(N3CCS(=N)(=O)CC3)cc2)CC1 [Example 56, (1R,2R,5S)-N-(1-cyanocyclopropyl)-5-fluoro-2-(1-(3-fluoropyridin-2-yl)-4-(4-(1-imino-1-oxidothiomorpholino)phenyl)-1H-pyrazol-3-yl)cyclohexanecarboxamide] | – | 5.69 nM |
| CC(C)[C@@H](C#N)NC(=O)[C@@H]1C[C@@H](F)CC[C@H]1c1nn(-c2ncccc2F)cc1-c1ccc(N2CCS(=N)(=O)CC2)cc1 [Example 58, (1R,2R,5S)-N-((S)-1-cyano-2-methylpropyl)-5-fluoro-2-(1-(3-fluoropyridin-2-yl)-4-(4-(1-imino-1-oxidothiomorpholino)phenyl)-1H-pyrazol-3-yl)cyclohexanecarboxamide] | – | 16 nM |
| N#CC1(NC(=O)[C@@H]2CCC(F)(F)C[C@H]2c2nn(-c3ccc(C(F)(F)F)cn3)cc2-c2ccc(N3CCS(=O)(=O)CC3)cc2)CC1 [Example 149, (1R,2R)-N-(1-cyanocyclopropyl)-2-(4-(4-(1,1-dioxidothiomorpholino)phen-yl)-1-(5-(trifluoromethyl)pyridin-2-yl)-1H-pyrazol-3-yl)-4,4-difluorocyclohexanecarbox-amide] | – | 2.58 nM |
| N#CC1(NC(=O)[C@@H]2CCC(F)(F)C[C@H]2c2nn(-c3ccc(Cl)cn3)cc2-c2ccc(N3CCS(=O)(=O)CC3)cc2)CC1 [Example 150, (1R,2R)-2-(1-(5-chloropyridin-2-yl)-4-(4-(1,1-dioxidothiomorpholino)phen-yl)-1H-pyrazol-3-yl)-N-(1-cyanocyclopropyl)-4,4-difluorocyclohexanecarbox-amide] | – | 1.43 nM |
| N#CC1(NC(=O)[C@@H]2CCC(F)(F)C[C@H]2c2nn(-c3ccc(F)cn3)cc2-c2ccc(N3CCS(=O)(=O)CC3)cc2)CC1 [Example 151, (1R,2R)-N-(1-cyanocyclopropyl)-2-(4-(4-(1,1-dioxidothiomorpholino)phen-yl)-1-(5-fluoropyridin-2-yl)-1H-pyrazol-3-yl)-4,4-difluorocyclohexanecarbox-amide] | – | 2.44 nM |
| N#CC1(NC(=O)[C@@H]2CCCC[C@H]2c2nn(-c3ncccn3)cc2-c2ccc(N3CCS(=O)(=O)CC3)cc2)CC1 [Example 160, (1R,2R)-N-(1-cyanocyclopropyl)-2-(4-(4-(1,1-dioxidothiomorpholino)phen-yl)-1-(pyrimidin-2-yl)-1H-pyrazol-3-yl)cyclohexanecarboxamide] | – | 34.7 nM |
